{"source": "paper PMC10762035", "about": "“Molecular basis of human trace amine-associated receptor 1 activation” (Nature Communications, 2024)", "type_in_all_cases": "cell-based", "key": {"hTA1": {"molecular_target": "T1, hTA1 (Homo sapiens, UniProt Q96RJ0)", "T1 construct": "expressed in transfected cells; host or cells: HEK293T", "T1 sequence (Q96RJ0 1-339)": "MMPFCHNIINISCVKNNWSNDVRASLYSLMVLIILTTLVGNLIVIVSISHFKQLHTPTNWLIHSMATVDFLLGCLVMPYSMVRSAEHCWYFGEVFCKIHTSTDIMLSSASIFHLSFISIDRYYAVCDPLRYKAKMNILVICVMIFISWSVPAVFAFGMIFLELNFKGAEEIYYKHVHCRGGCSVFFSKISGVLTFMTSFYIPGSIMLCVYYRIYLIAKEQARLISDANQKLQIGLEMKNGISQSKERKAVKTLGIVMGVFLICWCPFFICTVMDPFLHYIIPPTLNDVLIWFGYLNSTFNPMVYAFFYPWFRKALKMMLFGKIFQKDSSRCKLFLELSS", "experiment": "GloSensor cAMP accumulation assay, concentration response, wild-type hTA1 in transfected HEK293T cells;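 further: luminescence read after 30 min compound exposure at room temperature in cells preloaded with D-Luciferin, reflecting Gs-driven cAMP rise, efficacy scaled to the maximal β-PEA response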", "details": "for Emax: HEK-293T"}, "hTA1 b2N": {"molecular_target": "T2, hTA1 b2N (Homo sapiens, UniProt Q96RJ0)", "T2 construct": "read by me as the first 25 residues of β2AR (N); expressed in transfected cells; host or cells: HEK293T", "T2 sequence (Q96RJ0 with tags, fused parts or gaps)": "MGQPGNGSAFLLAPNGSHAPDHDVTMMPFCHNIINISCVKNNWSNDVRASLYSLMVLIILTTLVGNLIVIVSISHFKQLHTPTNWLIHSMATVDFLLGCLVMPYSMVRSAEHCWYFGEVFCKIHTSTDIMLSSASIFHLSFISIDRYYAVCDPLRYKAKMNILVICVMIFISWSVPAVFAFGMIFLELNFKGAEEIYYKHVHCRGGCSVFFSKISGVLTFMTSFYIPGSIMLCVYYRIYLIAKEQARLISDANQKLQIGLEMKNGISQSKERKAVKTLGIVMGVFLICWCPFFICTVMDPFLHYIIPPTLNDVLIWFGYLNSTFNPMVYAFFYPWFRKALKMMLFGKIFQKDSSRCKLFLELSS", "experiment": "GloSensor cAMP accumulation assay, b2N construct", "details": "b2N; n=2; read-out: Span ± SEM (Emax normalized to β-PEA)"}, "hTA1 C88S": {"molecular_target": "T3, hTA1 C88S (Homo sapiens, UniProt Q96RJ0, C88S)", "T3 construct": "expressed in transfected cells; host or cells: HEK293T", "T3 sequence (Q96RJ0 1-339 C88S)": "T1 sequence (Q96RJ0 1-339) with C88S", "experiment": "GloSensor cAMP accumulation assay, C88S mutant", "details": "C88S"}, "hTA1 S107C": {"molecular_target": "T4, hTA1 S107C (Homo sapiens, UniProt Q96RJ0, S107C)", "T4 construct": "expressed in transfected cells; host or cells: HEK293T", "T4 sequence (Q96RJ0 1-339 S107C)": "T1 sequence (Q96RJ0 1-339) with S107C", "experiment": "GloSensor cAMP accumulation assay, S107C mutant;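 further: cells transiently co-expressing receptor and GloSensor biosensor, luminescence read after 30 min agonist exposure at room temperature, concentration-response fitted by nonlinear regression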"}, "hTA1 V184P": {"molecular_target": "T5, hTA1 V184P (Homo sapiens, UniProt Q96RJ0, V184P)", "T5 construct": "expressed in transfected cells; host or cells: HEK293T", "T5 sequence (Q96RJ0 1-339 V184P)": "T1 sequence (Q96RJ0 1-339) with V184P", "experiment": "GloSensor cAMP accumulation assay, V184P mutant", "details": "for cAMP accumulation response, single replicate values (source data, Supplementary Figure 5): hTA1 V184P (N=2), log[Compound]"}, "[1]": {"details": "hTA1 V184P mutant minus WT average"}}, "note": "Numbering of substitutions follows the chain as printed. Values joined by “and” are separate entries in the source; they are usually repeats but may differ in a detail not shown here. Equal values may be shown once. Read-outs that look alike come from different tables or passages of the source.", "data": [{"smiles": "CCc1[nH]nc(C(=O)Nc2ccc([C@H]3CNCCO3)cc2)c1C", "note": "[ralmitaront]", "values": [{"measurement": "Emax", "setting": "hTA1", "result": 40.1, "unit": "%"}, {"measurement": "Emax", "setting": "hTA1; WT hTA1, β-PEA = 100, average of the two experiments, read-out: Emax values, Avg", "result": 40.1, "unit": "%"}, {"measurement": "Emax values, Mean", "setting": "hTA1; WT hTA1, β-PEA = 100, each line an independent experiment, 3 replicates", "result": "54.4399 and 25.7884"}, {"measurement": "Emax values, Avg", "setting": "hTA1; WT, average of the experiments, β-PEA = 100", "result": 40.11}, {"measurement": "Emax values, Avg", "setting": "hTA1; WT, average of the two experiments", "result": 40.11}, {"measurement": "Emax values, Mean", "setting": "hTA1; WT, mean of each independent experiment (3 replicates), β-PEA = 100", "result": "54.4399 and 25.7884"}, {"measurement": "Emax values, Mean", "setting": "hTA1; WT, single experiments (3 replicates each), β-PEA = 100", "result": "54.4399 and 25.7884"}, {"measurement": "Emax", "setting": "hTA1 b2N", "result": "82.5 ± 4.39", "unit": "%"}, {"measurement": "Emax values", "setting": "hTA1 C88S; Mean of fit per experiment", "result": "92.8994 and 62.9388"}, {"measurement": "Emax", "setting": "hTA1 C88S; n=2, read-out: Span ± SEM (Emax normalized to β-PEA)", "result": "77.9 ± 15", "unit": "%"}, {"measurement": "Emax", "setting": "hTA1 C88S; relative to β-PEA, read-out: Emax", "result": 77.9, "unit": "%"}, {"measurement": "ΔEmax values (each mutant value - WT average)", "setting": "hTA1 S107C; S107C mutant minus WT average", "result": 1.2358}, {"measurement": "Emax values, Mean", "setting": "hTA1 S107C; S107C mutant, β-PEA = 100, each line an independent experiment, 3 replicates", "result": 57.0471}, {"measurement": "Emax", "setting": "hTA1 S107C; S107C mutant, β-PEA = 100, each line an independent experiment, 3 replicates, read-out: Emax values (Mean)", "result": 41.3, "unit": "%"}, {"measurement": "Emax", "setting": "hTA1 S107C; S107C, n=2, read-out: Span ± SEM (Emax normalized to β-PEA)", "result": "49.2 ± 7.85", "unit": "%"}, {"measurement": "reduction in potency vs wild type", "setting": "hTA1 V184P; V184P", "result": 2.5, "unit": "fold"}, {"measurement": "Emax", "setting": "hTA1 V184P; V184P, n=2, read-out: Span ± SEM (Emax normalized to β-PEA)", "result": "48.73 ± 0.14", "unit": "%"}, {"measurement": "cAMP accumulation response, single replicate values (source data, Supplementary Figure 5)", "setting": "hTA1 V184P; M = -5", "result": "56.1002 and 44.9467 and 51.6388 and 50.9599 and 51.6929 and 37.8383"}, {"measurement": "cAMP accumulation response, single replicate values (source data, Supplementary Figure 5)", "setting": "hTA1 V184P; M = -5.522", "result": "38.6425 and 44.6557 and 34.0841 and 47.4046 and 55.1382 and 34.8694"}, {"measurement": "cAMP accumulation response, single replicate values (source data, Supplementary Figure 5)", "setting": "hTA1 V184P; M = -6", "result": "32.8233 and 40.4853 and 30.6896 and 36.9953 and 42.3832 and 37.3618"}, {"measurement": "cAMP accumulation response, single replicate values (source data, Supplementary Figure 5)", "setting": "hTA1 V184P; M = -6.522", "result": "24.4824 and 25.4523 and 22.4457 and 22.8108 and 28.9684 and 21.7112"}, {"measurement": "cAMP accumulation response, single replicate values (source data, Supplementary Figure 5)", "setting": "hTA1 V184P; M = -7", "result": "14.7837 and 10.7102 and 14.2987 and 13.3178 and 19.622 and 12.4015"}, {"measurement": "cAMP accumulation response, single replicate values (source data, Supplementary Figure 5)", "setting": "hTA1 V184P; M = -7.522", "result": "3.727 and 4.406 and 3.242 and 4.485 and 6.5 and 5.731"}, {"measurement": "cAMP accumulation response, single replicate values (source data, Supplementary Figure 5)", "setting": "hTA1 V184P; M = -8", "result": "0.5265 and 1.302 and 1.5934 and 2.432 and 2.322 and 1.296"}, {"measurement": "cAMP accumulation response, single replicate values (source data, Supplementary Figure 5)", "setting": "hTA1 V184P; M = -8.522", "result": "0.2356 and -0.3463 and -0.05538 and 1.699 and 1.076 and 0.2329"}, {"measurement": "cAMP accumulation response, single replicate values (source data, Supplementary Figure 5)", "setting": "hTA1 V184P; M = -9", "result": "0.3326 and -0.2494 and -1.025 and -0.1703 and -0.2803 and -0.5368"}, {"measurement": "cAMP accumulation response, single replicate values (source data, Supplementary Figure 5)", "setting": "hTA1 V184P; M = -9.522", "result": "-0.8313 and -0.9283 and -1.316 and -0.5002 and -0.3902 and -0.3169"}, {"measurement": "cAMP accumulation response, single replicate values (source data, Supplementary Figure 5)", "setting": "hTA1 V184P; M = -10", "result": "-1.122 (2×) and -0.3463 and -0.94 and -0.3902 and -1.3432"}, {"measurement": "cAMP accumulation response, single replicate values (source data, Supplementary Figure 5)", "setting": "hTA1 V184P; M = -10.522", "result": "-0.9283 and -1.025 and -1.219 and -0.9034 and -1.123 and -1.673"}, {"measurement": "cAMP accumulation response, single replicate values (source data, Supplementary Figure 5)", "setting": "hTA1 V184P; M = -11", "result": "-0.9283 and -1.607 (2×) and -0.3902 (2×) and -0.1703"}, {"measurement": "cAMP accumulation response, single replicate values (source data, Supplementary Figure 5)", "setting": "hTA1 V184P; M = -11.522", "result": "-1.607 (2×) and -1.898 and 0.746 and -0.02371 and -0.5002"}, {"measurement": "cAMP accumulation response, single replicate values (source data, Supplementary Figure 5)", "setting": "hTA1 V184P; M = -12", "result": "-1.607 and -1.219 and -1.51 and -0.6835 and 0.4894 and -0.5735"}, {"measurement": "cAMP accumulation response, single replicate values (source data, Supplementary Figure 5)", "setting": "hTA1 V184P; M = -12.522", "result": "-0.7343 and -1.4132 and -1.025 and -0.6835 and -0.7568 and -1.087"}, {"measurement": "ΔEmax values (each mutant value - WT average), Mean", "setting": "hTA1 V184P; [1]", "result": "8.48 and 8.751"}, {"measurement": "ΔpEC50 values (each mutant value - WT average), Mean", "setting": "hTA1 V184P; [1]", "result": "-0.4311 and -0.3552"}, {"measurement": "Emax values, Mean", "setting": "hTA1 V184P; hTA1 V184P mutant, β-PEA set to 100, each grid row a separate experiment, 3 replicates", "result": 48.8655}, {"measurement": "Emax", "setting": "hTA1 V184P; hTA1 V184P mutant, β-PEA set to 100, each grid row a separate experiment, 3 replicates, read-out: Emax values (Mean)", "result": 48.6, "unit": "%"}]}]}
